Experiments:
B16-F10 cells = experiment: Example 7: vaccination of mice lacking CD8(+) DCs; assay type: in vivo; settings: vaccinated Batf3−/− mice
Procedure: C57BL/6 mice and Batf3−/− knockout mice (6-8-week-old female; Jackson Laboratories) were used in the studies described in Example 7.
Since PLG vaccines incorporating TLR agonists were capable of generating CD8(+) DC populations in situ, which correlated to potent anti-tumor CTL responses and survival (FIGS. 17A-D and 19A-F), studies were carried out to examine whether these cells were required to confer anti-tumor immunity in vivo. […] Wild-type and Batf3−/− mice were vaccinated with CpG-ODN loaded PLG vaccines and challenged with B16-F10 cells 14 days later. Vaccination of wildtype mice promoted complete protection against tumor growth and long-term survival (100% survival), as expected, but vaccinated Batf3−/− were not protected and tumor growth rates were similar to untreated, wild-type animals (FIG. 20A).

B16-F10 melanoma cells = experiment: Example 7: therapeutic vaccination of established B16-F10 melanoma
Procedure: To assess PLG vaccine efficacy in the therapeutic setting, C57/BL6J mice were challenged with a subcutaneous injection of 5×10^5 B16-F10 melanoma cells (ATCC, Manassas, N.J.) in the back of the neck. At day 9 after tumor challenge PLG vaccines loaded with 3000 ng GM-CSF in combination with 100 μg of CpG-ODN, MPLA or P(I:C), and tumor lysates were implanted subcutaneously into the lower left flank of C57BL/6J mice. A subset of mice were vaccinated again 10 days after the initial vaccination (Days 19 and 23).
Mice challenged with 5×10^5B16-F10 melanoma cells were subsequently vaccinated at days 9 and 19, after tumors were established.

IL-12p70 = experiment: Example 7: cytokine concentrations at implant site; assay type: in vivo, C57BL/6J mice; settings: with GM-CSF
Procedure: To determine in vivo IL-12p70 concentration at the matrix implant site, adjacent tissue was excised and digested with tissue protein extraction reagent. After centrifugation, the concentrations of IL-12, in the supernatant were then analyzed with ELISA (R&D systems), according to the manufacturer's instructions.

B16-F10 tumors = experiment: Example 7: tumor infiltrating leukocyte (TIL) characterization; parameters: species or system C57BL/6J mice; settings: mouse, in vivo
Procedure: On the indicated days, B16-F10 tumors were removed from mice, and digested in 1 mg/mL collagenase II (250 U/ml) (Worthington, Lakewood, N.J.) and 0.1 mg/mL DNase for 1 hour at 37° C. Dissociated cells were filtered through a 40-μm filter, and directly stained with antibodies for phenotype characterization by fluorescence-activated cell sorting (FACS) analysis. APC-anti-CD8 and PE-Cy7-anti CD3 were used to identify T cells isolated from the B16F10 tumors. These TILs were also costained with FITC-anti-IFNγ, and PE-anti-CD107a. All antibodies were obtained from eBioscience, San Diego, Calif.

[1] = system: IL-12p70, IFN-α, IFN-γ, and TGF-β; experiment: In vivo cytokine concentrations at matrix implant site (ELISA); parameters: species or system C57BL/6J mice
Procedure: After centrifugation, the concentrations of IL-12, IFN-α, IFN-γ, and TGF-β in the supernatant were then analyzed with enzyme-linked immunosorbent assay (R&D Systems) according to the manufacturer's instructions.

dendritic cells = experiment: Example 7: DC recruitment and activation in matrices with GM-CSF and TLR agonists (FACS, day 7); assay type: in vivo, C57BL/6J mice
From the text: The cell suspensions were then poured through a 40 μm cell strainer to isolate cells from scaffold particles and the cells were pelleted and washed with cold PBS and counted using a Z2 coulter counter (Beckman Coulter). To assess, DC infiltration and activation, subsets of the total cell population isolated from PLG matrices were then stained with primary antibodies (BD Pharmingen, San Diego, Calif.) conjugated to fluorescent markers to allow for analysis by flow cytometry. APC-conjugated CD11c (dendritic cell marker), FITC-conjugated MHCII and PE-conjugated CD86 (B7, costimulatory molecule) stains were conducted for DC recruitment and activation analysis. To further delineate the presence of specific DC subsets, cells were also stained with APC-conjugated CD11c and PE-conjugated PDCA-1 (plasmacytoid DC marker) or APC-conjugated CD11c and PE-conjugated CD8 (CD8 DCs). To assess T-cell infiltration PE-Cy7 conjugated CD3 stains were performed in conjunction with APC-conjugated CD8a (CD8 T cells), and PE-conjugated FoxP3 (Treg) and analyzed with flow cytometry. Cells were gated according to single positive FITC, APC and PE stainings and using isotype controls. The percentage of cells staining positive for each surface antigen was recorded. To examine the ability of PLG matrices to recruit and activate dendritic cells in vivo, matrices delivering GM-CSF in combination with danger signals were implanted subcutaneously into the backs of C57BL/6J mice. The magnitude of DC infiltration and activation into the matrices was determined by FACS analysis of cell populations isolated from the polymeric material after 7 days.

JAWSII DCs = experiment: In vitro DC migration toward CCL19 (transwell); assay type: cell-based
Procedure: Migration assays were performed with 6.5 mm transwell dishes (Costar, Cambridge, Mass.) with a pore size of 5 μm. To test whether CpG-ODN stimulation may affect DC chemotaxis towards CCL19 (Peprotech, Rocky Hill, N.J.) in the presence of GM-CSF, 5×10^5 DCs stimulated with either 5 μg/ml of CpG-ODN or PEI-CPG-ODN (Charge Ratio of 7), and 0, 50 and 500 ng/ml GM-CSF were placed in the top wells and 300 ng/ml of CCL19 was placed in the bottom well. After 12 hours the cells that migrated into the bottom wells of the chamber were harvested and counted using a coulter counter. Dispersement of DCs from PEI-CpG-ODN loaded PLG matrices toward CCL19 was assessed by incorporating 5, 50 and 500 μg of condensates into PLG scaffolds (13 mm diameter, 2 mm thick that were quartered) seeded with 1×10^6 DCs and fixed onto transwells using bovine collagen (BD Biosciences, San Jose, Calif.). To test the effects of CpG stimulation in the presence of GM-CSF, 500 ng/ml of GM-CSF was supplemented into the media of the top wells with scaffolds containing 25 μg of PEI-CpG-ODN. At various timepoints, the cells that migrated into the bottom wells of the chamber were harvested and counted using a coulter counter.

[2] = system: TRP-2-specific cytotoxic T lymphocytes; experiment: Example 8: TRP-2-specific cytotoxic T lymphocytes in spleens (Day 10); parameters: species or system C57BL/6J mice; settings: mouse, in vivo
IL-12p70 and IFN-γ = settings: tumor lysate and CpG-ODN
Procedure: To determine the in vivo IL-12p70 and IFN-γ concentration at the matrix implant site, adjacent tissue was excised and digested with tissue protein extraction reagent at Day 10 after implantation (Pierce). After centrifugation, the concentrations of IL-12 and IFN-γ, in the supernatant were then analyzed with ELISA (R&D systems), according to the manufacturer's instructions. To determine the generation of TRP-2-specific cytotoxic T lymphocytes, single cell suspensions were prepared at Day 10 from the spleens of mice immunized with PLG vaccines. These cells were initially stained with PE-H-2Kb/TRP2 pentamers (Sigma Aldrich), and subsequently stained with FITC-anti-CD8 and PE-CY7 CD3 mAb (mAb (BD Pharmingen, San Diego) before being analyzed using flow cytometry.

CpG-ODN 1826
decrease in TRP2 specific cytotoxic T cells at vaccine site vs wild-type (B16-F10 cells): 3 fold | protection against tumor growth (B16-F10 cells): not protected | complete tumor regression, fraction of vaccinated animals (B16-F10 melanoma cells; mouse, in vivo): over a third | size of tumors that completely regressed / were eradicated (B16-F10 melanoma cells; mouse, in vivo): 35 mm^2 | long term survival of mice (B16-F10 melanoma cells; vaccinated at days 9 and 19): 33% | effect on IFN-α concentration at vaccine site (IL-12p70): elevated levels | increase in IFNγ(+), CD107a(+) TILs in comparison to controls (B16-F10 tumors): approximately 6.1 fold | local production of IFN-α ([1]; high doses of CpG-ODN): ~1010 pg/mL | local production of IL-12 ([1]; high doses of CpG-ODN): 150 pg/mL | CD8(+) DCs at implant site, higher than controls (dendritic cells; with GM-CSF): 9 fold | CD11c(+) cells positive for MHCII(+) and CD86(+), of total cells recruited (dendritic cells; with GM-CSF): approximately 30% | enhancement of total number of recruited DCs compared to GM-CSF delivery alone (dendritic cells; with GM-CSF): 2.5 fold | increase in total number of activated DCs relative to control matrices (dendritic cells; with GM-CSF): ~23 fold

B1: granulocyte macrophage colony stimulating factor (protein, UniProt P01587 18-141, looked up)
Granulocyte-macrophage …: APTRSPITVTRPWKHVEAIKEALNLLDDMPVTLNEEVEVVSNEFSFKKLTCVQTRLKIFEQGLRGNFTKLKGALNMTASYYQTYCPPTPETDCETQVTTYADFIDSLKTFLTDIPFECKKPGQK
notes: cytokine encapsulated in and released from PLG matrices to recruit DCs
concentration that inhibited DC migration toward CCL19 (JAWSII DCs): > 100 ng/mL | factor of increase in TGFβ concentrations at vaccine site ([1]; GM-CSF and tumor lysate in matrix): 10 | Trp2 specific CTLs in spleens, higher than control vaccines [2]: ~4 fold | CD11c(+) cells in matrices (dendritic cells; GM-CSF alone): 241000 cells | CD86 expression (dendritic cells; GM-CSF alone): 4.58 % of CD11c(+) cells | MHCII expression (dendritic cells; GM-CSF alone): 2.57 % of total CD11c(+) cells | increase in local concentration of IFN-γ over control scaffolds (IL-12p70 and IFN-γ): ~6 fold | increase in local concentration of IL-12 over control scaffolds (IL-12p70 and IFN-γ): approximately 3 fold

From patent US10568949B2, “Method of eliciting an anti-tumor immune response with controlled delivery of TLR agonists in porous polymerlc devices” (President and Fellows of Harvard College, priority 2008, dated 2020)
